Reference: ChEMBL document CHEMBL1201862, “PubChem BioAssay data set” (2004)
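Exposure lasted 48 hours, with cells grown in 96-well plates and compounds tested at five concentrations. At the GI50, growth is halved.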 The source made the active and inactive calls. No stated cut-off is given here; in the data, active = GI50 up to about 1.1 µM and inactive = higher.

Tests used:
Assay in all cases: inhibition of tumour cell growth, NCI panel, 48 h
[1] = test system: EKVX
[2] = test system: SW-620
[3] = test system: OVCAR-4
[4] = test system: UACC-62
[5] = test system: MDA-N
[6] = test system: MDA-MB-231
[7] = test system: NCI/ADR-RES
[8] = test system: OVCAR-3
[9] = test system: COLO 205
[10] = test system: KM12
[11] = test system: SK-MEL-5
[12] = test system: IGROV-1
[13] = test system: SNB-19
[14] = test system: SK-OV-3
[15] = test system: NCI-H522
[16] = test system: SF-268
[17] = test system: OVCAR-8
[18] = test system: MDA-MB-435
[19] = test system: U-251
[20] = test system: HT-29
[21] = test system: A549
[22] = test system: CCRF-CEM
[23] = test system: ACHN
[24] = test system: HCT-116
[25] = test system: HCT-15
[26] = test system: SK-MEL-2
[27] = test system: MCF7
[28] = test system: TK-10
[29] = test system: BT-549
[30] = test system: RPMI-8226
[31] = test system: T47D
[32] = test system: K562
[33] = test system: RXF 393
[34] = test system: SK-MEL-28
[35] = test system: SN12C
[36] = test system: HOP-62
[37] = test system: 786-0
[38] = test system: Hs-578T
[39] = test system: SF-295
[40] = test system: PC-3
[41] = test system: NCI-H226
[42] = test system: MOLT-4
[43] = test system: NCI-H23
[44] = test system: UO-31
[45] = test system: OVCAR-5
[46] = test system: SNB-75
[47] = test system: M14
[48] = test system: Malme-3M
[49] = test system: HCC 2998
[50] = test system: DU-145
[51] = test system: UACC-257
[52] = test system: CAKI-1
[53] = test system: NCI-H460
[54] = test system: HOP-92
[55] = test system: SF-539
[56] = test system: LOX IMVI
[57] = test system: HL-60
[58] = test system: A498

`O=C1N[C@H](C(=O)O)[C@@H](c2ccc(OCc3ccccc3)cc2)O1` was tested, and the GI50 [1] was 22.4 µM (inactive), the GI50 [2] was > 100 µM (inactive) and the GI50 [3] was 29.7 µM (inactive). The GI50 [4] was 67.5 µM (inactive), the GI50 [5] was > 100 µM (inactive) and the GI50 [6] was 23.2 µM (inactive). The GI50 [7] was 22.5 µM (inactive), the GI50 [8] was 92.5 µM (inactive) and the GI50 [9] was > 100 µM (inactive). For the same molecule, the GI50 [10] was > 100 µM (inactive), the GI50 [11] was > 100 µM (inactive) and the GI50 [12] was 20.9 µM (inactive). The GI50 [13] was 17.7 µM (inactive), the GI50 [14] was 44.1 µM (inactive) and the GI50 [15] was 37.3 µM (inactive). The GI50 [16] was 25.4 µM (inactive), the GI50 [17] was 20.7 µM (inactive) and the GI50 [18] was > 100 µM (inactive). The GI50 [19] was 27.9 µM (inactive), the GI50 [20] was > 100 µM (inactive) and the GI50 [21] was 81.5 µM (inactive). For the same molecule, the GI50 [22] was > 100 µM (inactive), the GI50 [23] was 36.5 µM (inactive) and the GI50 [24] was 31.7 µM (inactive). For the same molecule, the GI50 [25] was 41.8 µM, the GI50 [26] was 26.2 µM (inactive) and the GI50 [27] was 37.1 µM (inactive). The GI50 [28] was 27.4 µM (inactive), the GI50 [29] was 32.1 µM (inactive) and the GI50 [30] was 11.6 µM (inactive). The GI50 [31] was 26.3 µM (inactive), the GI50 [32] was > 100 µM (inactive) and the GI50 [33] was 12.9 µM (inactive). The GI50 [34] was > 100 µM (inactive), the GI50 [35] was 45.1 µM (inactive) and the GI50 [36] was 13.6 µM (inactive). The GI50 [37] was 16.6 µM (inactive), the GI50 [38] was 27.5 µM (inactive) and the GI50 [39] was 26.1 µM (inactive). The GI50 [40] was > 100 µM (inactive), the GI50 [41] was 24.9 µM (inactive) and the GI50 [42] was > 100 µM (inactive). The GI50 [43] was 40.4 µM (inactive), the GI50 [44] was > 100 µM (inactive) and the GI50 [45] was > 100 µM (inactive). For the same molecule, the GI50 [46] was 10.8 µM (inactive), the GI50 [47] was > 100 µM (inactive) and the GI50 [48] was > 100 µM (inactive). For the same molecule, the GI50 [49] was > 100 µM (inactive), the GI50 [50] was 35.5 µM (inactive) and the GI50 [51] was > 100 µM (inactive). For the same molecule, the GI50 [52] was 34.3 µM (inactive).

For `CC(C)(C)NC(=O)N1N=C(c2ccccc2)C1c1ccccc1` (configuration not stated), the GI50 [1] was 42.6 µM (inactive), the GI50 [53] was 41.1 µM (inactive) and the GI50 [2] was 31.1 µM (inactive). For the same molecule, the GI50 [3] was 56.5 µM (inactive), the GI50 [4] was 52.6 µM (inactive) and the GI50 [5] was 44.6 µM (inactive). For the same molecule, the GI50 [54] was 22.3 µM (inactive), the GI50 [6] was 95.9 µM (inactive) and the GI50 [7] was 35.2 µM (inactive). For the same molecule, the GI50 [8] was 21.5 µM (inactive), the GI50 [9] was 35.7 µM (inactive) and the GI50 [10] was 47.6 µM (inactive). For the same molecule, the GI50 [11] was 20.2 µM (inactive), the GI50 [12] was 59.8 µM (inactive) and the GI50 [13] was 34.3 µM (inactive). For the same molecule, the GI50 [14] was > 100 µM (inactive), the GI50 [55] was 22.1 µM (inactive) and the GI50 [15] was 19.6 µM (inactive). The GI50 [16] was 66.5 µM (inactive), the GI50 [17] was 40.2 µM (inactive) and the GI50 [19] was 69.3 µM (inactive). For the same molecule, the GI50 [20] was 18 µM (inactive), the GI50 [21] was 31.5 µM (inactive) and the GI50 [22] was 22.6 µM (inactive). For the same molecule, the GI50 [23] was 34.5 µM (inactive), the GI50 [24] was 19.7 µM (inactive) and the GI50 [25] was 23.9 µM. The GI50 [27] was 41.7 µM (inactive), the GI50 [28] was 26 µM (inactive) and the GI50 [29] was 29.9 µM (inactive). For the same molecule, the GI50 [30] was 22.5 µM (inactive), the GI50 [31] was 42.7 µM (inactive) and the GI50 [33] was 14 µM (inactive). For the same molecule, the GI50 [56] was 35.7 µM (inactive), the GI50 [34] was 48.3 µM (inactive) and the GI50 [57] was 32.6 µM (inactive). The GI50 [35] was 43.5 µM (inactive), the GI50 [37] was 15.7 µM (inactive) and the GI50 [38] was 48.3 µM (inactive). The GI50 [39] was 35.6 µM (inactive), the GI50 [40] was 26.6 µM (inactive) and the GI50 [41] was 48.4 µM (inactive). The GI50 [43] was 35.9 µM (inactive), the GI50 [44] was 18.2 µM (inactive) and the GI50 [45] was > 100 µM (inactive). For the same molecule, the GI50 [46] was 87.1 µM (inactive), the GI50 [47] was 61.5 µM (inactive) and the GI50 [48] was 25.3 µM (inactive). The GI50 [58] was > 100 µM (inactive), the GI50 [49] was > 100 µM (inactive) and the GI50 [50] was > 100 µM (inactive). For the same molecule, the GI50 [51] was 25.5 µM (inactive) and the GI50 [52] was 26.4 µM (inactive).

`C/C(N)=C/C(=O)c1[nH]c(C(=O)O)cc1C1CCN(Cc2ccccc2)C1=O` (configuration not stated) was tested, and the GI50 [1] was 30.1 µM (inactive), the GI50 [53] was 29.4 µM (inactive) and the GI50 [2] was 46.1 µM (inactive). For the same molecule, the GI50 [3] was 47.8 µM (inactive), the GI50 [4] was 22.3 µM (inactive) and the GI50 [5] was 23.7 µM (inactive). The GI50 [54] was 17 µM (inactive), the GI50 [6] was 41.1 µM (inactive) and the GI50 [7] was 19.9 µM (inactive). The GI50 [8] was 20.6 µM (inactive), the GI50 [9] was 23.9 µM (inactive) and the GI50 [10] was 31.9 µM (inactive). For the same molecule, the GI50 [11] was 15.3 µM (inactive), the GI50 [12] was 27.2 µM (inactive) and the GI50 [13] was 33.4 µM (inactive). The GI50 [14] was 28.6 µM (inactive), the GI50 [15] was 20.6 µM (inactive) and the GI50 [16] was 22.3 µM (inactive). For the same molecule, the GI50 [17] was 21.8 µM (inactive), the GI50 [18] was 40.6 µM (inactive) and the GI50 [19] was 39.6 µM (inactive). The GI50 [20] was 31.8 µM (inactive), the GI50 [21] was 34.4 µM (inactive) and the GI50 [23] was 30 µM (inactive). For the same molecule, the GI50 [24] was 22.2 µM (inactive), the GI50 [25] was 29.9 µM and the GI50 [26] was 28.9 µM (inactive). The GI50 [27] was 24.2 µM (inactive), the GI50 [28] was 38.5 µM (inactive) and the GI50 [29] was 31.8 µM (inactive). For the same molecule, the GI50 [30] was 19.6 µM (inactive), the GI50 [31] was 22.8 µM (inactive) and the GI50 [32] was 20.8 µM (inactive). For the same molecule, the GI50 [33] was 18.5 µM (inactive), the GI50 [34] was 24.3 µM (inactive) and the GI50 [36] was 18.4 µM (inactive). For the same molecule, the GI50 [37] was 26.7 µM (inactive), the GI50 [38] was 27.9 µM (inactive) and the GI50 [39] was 21.3 µM (inactive). The GI50 [40] was 37.6 µM (inactive), the GI50 [42] was 24.4 µM (inactive) and the GI50 [43] was 22.8 µM (inactive). The GI50 [44] was 23.2 µM (inactive), the GI50 [45] was 30.2 µM (inactive) and the GI50 [46] was 23.1 µM (inactive). The GI50 [47] was 18.8 µM (inactive), the GI50 [48] was 18.8 µM (inactive) and the GI50 [58] was 65.3 µM (inactive). The GI50 [49] was 52.7 µM (inactive), the GI50 [50] was 22.1 µM (inactive) and the GI50 [51] was 28.6 µM (inactive). The GI50 [52] was 40.8 µM (inactive).
